# Assay results from patent US20060154993A1, “Method for treating and preventing male infertility” (priority 2004, published 2006).
# Values joined by “and” are separate entries in the source; they are usually repeats but may differ in a detail not shown here. Identical values can stand only once. Marks after values point to notes of the source that are not given here.
# Legend:
# [1] = test system: idiopathic asthenospermia; assay: Spontaneous pregnancy after CoQ10 therapy; assay type: in vivo, human; settings: within 3 months of the discontinuation of therapy
# Description: (§1) Twenty-two patients (mean age, 31 years; range, 25-39 years) with idiopathic asthenospermia were enrolled in the study. The patients were selected at the Andrology Unit of the Division of Endocrinology, Umberto I Hospital, University of Ancona, Ancona, Italy. All subjects underwent medical screening, including history and clinical examination, and presented with a clinical history of primary infertility of at least 3 years. Testicular volume was evaluated in each patient using Prader's orchidometer. To accomplish a complete diagnosis, the following investigations were also performed: semen analysis; Mar-test (SperMar test, Diasint, Florence, Italy) for anti-spermatozoa antibodies (Ab); sperm culture and urethral specimens collection for Chlamydia and Mycoplasma ureoliticum detection; FSH, LH, T, E2, and PRL assays, using commercial RIA kits; and testicular, prostatic, and seminal vesicle ultrasound and echo-color Doppler of venous spermatic plexus for anatomical abnormalities and varicocele detection.
# There was no apparent female factor, since all partners (mean age, 28 years; range, 23-35 years) were ovulating regularly as formally proven by luteal phase progesterone (P) levels and no abnormal fallopian tube anatomy was detected after hysterosalpingography. […]
# sperm cells [2] = assay: Computer-assisted sperm analysis (CASA) of sperm cell motility; assay type: in vivo, human; settings: after 6 months treatment, P<0.05; for Straight progressive velocity (VSL): baseline 15.20 ± 1.30; for Curvilinear velocity (VCL): baseline 26.31 ± 1.50
# Description: (§2) The enrolled patients underwent dietary implementation of CoQ10 (PharmaNord, Veyle, Denmark), 200 mg/day twice daily orally for 6 months. Clinical examination, semen analysis including computer-assisted sperm analysis (CASA), and CoQ10 and PC assays were performed at baseline and after 6 months of therapy. An additional semen analysis was performed 6 months after the termination of therapy (wash-out). This study was approved by the Institutional Review Board of the University of Ancona-Umberto I Hospital. All patients provided their written informed consent and completed the entire trial.
# In addition, CASA for sperm cell motility was performed, as reported elsewhere. One semen aliquot (3 μL) was placed in a 20-μm depth chamber. Two 20-μm depth cell-VU chambers (Conception Technologies, La Jolla, Calif.) were loaded, and six different fields per chamber were randomly examined and at least 200 sperm for each field of the chamber were scored. Percentages of motile sperm and movement characteristics were analyzed using an automated analyzer at 37° C. (CellTrack VP 110, Motion Analysis Corporation, Palo Alto, Calif.). Sperm velocity and kinetic characteristics were evaluated only for motile sperm and expressed as mean values considering curvilinear velocity (VCL) and straight progressive velocity (VSL).
# [3] = after chronic administration of the quinone; commonly found; cited from earlier work
# Safety assessment = assay type: in vivo, human; settings: oral administration, 6 months
# From the text: Safety assessment included medical history, physical examination, hematological screening, and serum chemistry at all visits and the monitoring of drug-related adverse events by recordation in patient diaries.
# [4] = CoQ10 levels in seminal plasma and sperm cells by HPLC-EC, idiopathic asthenospermia patients on CoQ10; assay type: in vivo, human
# Description: as §1, §2
# The liquefied semen samples were centrifuged at room temperature at 500×g for 18 minutes. The sperm cell pellet was washed with 0.15 M NaCl. Two hundred fifty microliters of 1-propanol were added to 50 μL of a cellular suspension containing 10^6 sperm cells or to 50 μL of seminal plasma. After mixing for 1 minute, the samples were centrifuged for 5 minutes at 2,000×g and the obtained supernatants were injected into the high pressure liquid chromatography (HPLC) apparatus. […]
# CoQ10 levels were assayed in sperm cells and seminal plasma using a Beckman Gold HPLC System (Beckman Instruments, San Ramon, Calif.) equipped with an electrochemical detector (EC, ESA 5100, Bedford, Mass.) as described elsewhere. The detector was supplied with a guard cell and an analytical cell with two electrodes in series; the potentials applied to the electrodes were, respectively, +0.6V, −0.45V, and +0.6V; chromatograms were recorded from the second analytical cell signal. One hundred microliters of samples were directly injected into the analytical column and analyzed; an analytical column was a Supelcosil reverse-phase C18, 15 cm×0.46 cm ID, 3 μm (Supelco, Inc., Bellefonte, Pa.). […]
# sperm cells [5] = assay: Seminal fluid analysis (WHO criteria): sperm concentration, motility, morphology; assay type: in vivo, human; settings: for Sperm concentration / Teratozoospermia: NS
# Description: as §2
# Semen quality was assessed by the same biologist in terms of sperm concentration, motility, and morphology in accordance with WHO criteria. Briefly, seminal fluid was obtained by masturbation after 3-5 days of sexual abstinence. The samples were kept in the andrology lab at room temperature and processed within 1 hour from ejaculation. Sperm count was determined with the Makler chamber. Motile spermatozoa were assessed by phase contrast microscopy (10 μL of semen was delivered onto a glass slide and covered with a 22 mm×22 mm coverslip) and graded as follows: class a and b, fast and weak forward motility; class c, nonprogressive motility; class d, immobile spermatozoa. Sperm morphology was evaluated on smears of seminal fluid, stained with the Giemsa method, and observed by oil immersion light microscopy. Conventional immunocytochemistry was used to assess WBC.
# [6] = Phosphatidylcholine (PC) levels in seminal plasma and sperm cells by HPLC-UV after CoQ10 treatment; assay type: in vivo, human; settings: after 6 months CoQ10 orally, mean ± SD, P<0.05
# Description: as §2
# Analysis of PC was performed according to Frei et al. with the modification described by Yamamoto et al. After adding 1 mL of methanol to a cellular suspension containing about 10^6 sperm cells or to 50 μL of seminal plasma, samples were mixed for 1 minute; then 6 mL of hexane were added and samples were mixed again before centrifugation (10 minutes at 500 g). Supernatant was collected and dried with a nitrogen stream. Dried sample residues were dissolved in 300 μL of ethanol.
# Phosphatidylcholine was essentially determined according to Frei et al. An analytical column was a Supelcosil LCSi, 25 cm×0.46 cm ID, 5 μm (Supelco). A Jasco HPLC System (Jasco Corporation, Tokyo, Japan) provided with two PU-980 pumps, and a UV detector set at 205 nm wavelength was used for detention of total PC.
# [7] = after 6 months wash-out, listed as coenzyme Q10
smiles,measurement,setting,value
"COC1=C(OC)C(=O)C(C/C=C(\C)CC/C=C(\C)CC/C=C(\C)CC/C=C(\C)CC/C=C(\C)CC/C=C(\C)CC/C=C(\C)CC/C=C(\C)CC/C=C(\C)CCC=C(C)C)=C(C)C1=O [CoQ10, ubiquinone]",patients who achieved spontaneous pregnancy,[1]; three out of 22 patients,13.6%
same,pregnancy rate per cycle,[1],2.4%
same,Straight progressive velocity (VSL),sperm cells [2],20.40±2.17 um/second
same,Straight progressive velocity (VSL),sperm cells [2]; listed as coenzyme Q10,20.40 ± 2.17^a um/second
same,Curvilinear velocity (VCL),sperm cells [2],46.43±2.28 um/second
same,Curvilinear velocity (VCL),sperm cells [2]; listed as coenzyme Q10,46.43 ± 2.28^a um/second
same,increase of CoQ10 concentration in blood plasma compared with baseline value,[3],2-3 times
same,laboratory abnormalities,Safety assessment,no laboratory abnormalities were observed
same,tolerability,Safety assessment,generally well tolerated
same,"CoQ10, seminal plasma","[4]; after 6 months CoQ10 200 mg/day twice daily orally, baseline 42.0 ± 5.1, mean ± SD, P<0.005",127.1 ± 1.9^a ng/mL
same,"CoQ10, sperm cells","[4]; after 6 months CoQ10 orally, baseline 3.1 ± 0.4, mean ± SD, P<0.05",6.5±0.3 ng/10^6 cells and 6.5 ± 0.3^b ng/10^6 cells
same,seminal plasma CoQ10 post-treatment level relative to basal,[4]; after 6 months treatment,3 times
same,concentration at 6 months,"[4]; male, human, seminal plasma, po, after 6 months CoQ10 200 mg/day twice daily orally, baseline 42.0 ± 5.1, mean ± SD, P<0.005",127 ± 1.9 ng/mL
same,Forward Motility (class a+b),"sperm cells [5]; after 6 months treatment, baseline 9.13 ± 2.50, P<0.05",16.34%±3.43
same,Forward Motility (class a+b),"sperm cells [5]; after 6 months treatment, baseline 9.13 ± 2.50, P<0.05, listed as coenzyme Q10",16.34 ± 3.43^a %
same,Sperm concentration,"sperm cells [5]; after 6 months treatment, baseline 27.60 ± 7.41",No significant differences
same,Sperm concentration,"sperm cells [5]; after 6 months treatment, baseline 27.60 ± 7.41, listed as coenzyme Q10","25.92 ± 5.63, NS 106/mL"
same,Teratozoospermia,"sperm cells [5]; after 6 months treatment, baseline 69.76 ± 4.63",No significant differences
same,Teratozoospermia,"sperm cells [5]; after 6 months treatment, baseline 69.76 ± 4.63, listed as coenzyme Q10","67.82 ± 7.44, NS %"
same,Forward Motility (class a+b),sperm cells [5]; after 6 months wash-out,9.50% ±2.28
same,Sperm concentration,sperm cells [5]; after 6 months wash-out,no significant differences
same,Teratozoospermia,sperm cells [5]; after 6 months wash-out,no significant differences
same,Sperm concentration,sperm cells [5]; [7],"26.18 ± 4.04, NS 106/mL"
same,Teratozoospermia,sperm cells [5]; [7],"66.23 ± 5.34, NS %"
same,Forward Motility (class a+b),sperm cells [5]; [7],9.50 ± 2.28^b %
same,"PC, seminal plasma",[6]; baseline 1.49 ± 0.50,5.84±1.15 μM and 5.84 ± 1.15^b μM
same,"PC, sperm cells",[6]; baseline 6.83 ± 0.98,9.67±1.23 nmol/10^6 cells and 9.67 ± 1.23^b nmol/10^6 cells
